Source: patent US20140283155A1, “REPRESSIBLE LETHAL SYSTEM FOR REGULATING INSECT POPULATIONS” (California Institute of Technology, priority 2013, published 2014)

Tested on: Drosophila melanogater
Assay: Evaluation of VanDal system in biological control (in vivo functionality, survival of transgenic lines and progeny)
Settings: diet supplemented with a low dose vanillic acid
Description: To engineer a dominant vanillic acid-repressible lethal system (VanDal system), a plasmid was constructed, in which the C-terminus of VanR was fused with the Herpes simplex virus transactivation domain VP16, generating a chimeric transcription factor (vanRTF) (as descried in Hagmann et al., 1997). The chimeric transcription factor VanR^TF was driven at high levels, in a ubiquitous pattern, using a baculovirus immediate early (iel) promoter separated by a baculovirus enhancer (hr5) (as described in Bossin et al., 2007). On the same plasmid, but facing in the opposite direction, VanO operator sequences were placed upstream of the P_hsp70^min promoter (as described in Amin et al., 1987), and the P_hsp70^min promoter drove the expression of toxin VP16. The vanillic acid-repressible lethal system resides in a single piggyback transposable element that also includes a positive selection marker gene, (Opie2-dsRed), to facilitate the identification of transgenic insects.
In this example, in vivo functionality of the VanDal system prepared according to the general procedure of Example 1 was evaluated in Drosophila melanogater, an insect model organism. […] To simulate a release into the wild, two crosses in the absence of vanillic acid were set up: 1) homozygous VanDal males mated separately to wildtype virgin females and 2) homozygous Vandal females mated separately to wildype males.

## COc1cc(C(=O)O)ccc1O [vanillic acid, 4-hydroxy-3-methoxybenzoic acid]
  survival of transgenic VanDal lines: only survive when fed a diet supplemented with a low dose vanillic acid
